Experiments:
HCC827 and H1650 cells = assay: Cleaved caspase-3 immunoblot in proliferating or palbociclib-treated senescent NSCLC cells treated with PAR1 inhibitors; assay type: cell-based, human; settings: for caspase-3 cleavage: HCC827 and H1650, palbociclib (0.5 μM, 7 days)-treated senescent cells, increasing doses of PAR1 inhibitor
Protocol: Because THBD is thought to signal primarily through PAR1, it was first tested whether, like THBD depletion, pharmacological PAR1 inhibition results in senescent cell death. For this, proliferating or palbociclib-treated senescent HCC827 and H1650 cells were treated with increasing doses of vorapaxar or SCH79797 and immunoblotted for cleaved caspase-3.

[1] = tested on: THBD in primary human bronchial epithelial (HBE) cells; assay: Gene expression profiling of erlotinib-induced senescent versus proliferating HBE cells; assay type: cell-based
Source text: Cell Res, 2018. 28(6): p. 625-643; Xiang, H., et al., UHRF1 is required for basal stem cell proliferation in response to airway injury. Cell Discov, 2017. 3: p. […] Cell Res, 2018. 28(6): p. 625-643).

NSCLC = settings: monotherapy for NSCLC; cited from earlier work
MDA-MB-231 cells = assay: Cleaved caspase-3 immunoblot in proliferating and palbociclib-induced senescent MDA-MB-231 cells treated with vorapaxar; assay type: cell-based
Protocol: Proliferating and palbociclib-induced senescent MDA-MB-231 cells were treated with increasing doses of vorapaxar. Following treatment, cells were immunoblotted for cleaved caspase-3.

CC(C)c1ccc(Cn2ccc3c4c(N)nc(NC5CC5)nc4ccc32)cc1 [SCH79797]
caspase-3 cleavage (HCC827 and H1650 cells): dose-dependent increase

C#Cc1cccc(Nc2ncnc3cc(OCCOC)c(OCCOC)cc23)c1 [erlotinib]
THBD gene expression in senescent versus proliferating cells [1]: four-fold increase

CC(=O)c1c(C)c2cnc(Nc3ccc(N4CCNCC4)cn3)nc2n(C2CCCC2)c1=O [palbociclib]
adverse side effects (NSCLC): neutropenia and leukopenia

CCOC(=O)N[C@@H]1CC[C@@H]2[C@@H](C1)C[C@H]1C(=O)O[C@H](C)[C@H]1[C@H]2/C=C/c1ccc(-c2cccc(F)c2)cn1 [vorapaxar]
caspase-3 cleavage (HCC827 and H1650 cells): dose-dependent increase
lowest dose inducing caspase-3 cleavage (HCC827 and H1650 cells; combined with palbociclib): 25 nM
caspase-3 cleavage, senescent cells (MDA-MB-231 cells; palbociclib-induced senescent MDA-MB-231, increasing doses of vorapaxar (50 nM-1 μM), 24 h): dose-dependent increase
caspase-3 cleavage, proliferating cells (MDA-MB-231 cells; proliferating MDA-MB-231, increasing doses of vorapaxar): minimal increase
